# Laboratory results: patent publication US5192764A, “Pyrazinone N-oxide nucleosides and analogs thereof” (priority 1991, dated 1993)
# pEC50, pIC50: −log10 of the molar value.
# How the values were obtained:
# HSV-1 KOS (PMEAr) = assay: Plaque Reduction Method against HSV-1 KOS 9-(2-phosphonylmethoxyethyl)-adenine resistant strain; format: cell-based; settings: Human alphaherpesvirus 1, read-out: ID50
# Protocol: (§1) Using the Plaque Reduction Method, activity against HSV-1 KOS Phosphono formate resistant (PFAr) and KOS 9-(2-Phosphonylmethoxyethyl)-adenine resistant (PMEAr) strains was assessed.
# bacterial cells = settings: literature; cited from earlier work
# HSV-2 (333) = assay: Virus Yield method against HSV-2 (333); format: cell-based; settings: Human alphaherpesvirus 2, read-out: ID90 (the source's name)
# leukemia L1210 cells = assay: Cytotoxicity against leukemia L1210 cells; format: cell-based; settings: up to a concentration of 2×10^-3
# Protocol: (§2) Compounds B and C were tested for cytotoxicity against leukemia L1210 cells up to a concentration of 2×10^-3 according to the method described in Bobek and Bloch, J. Med. Chem., 20, 458, 1977. In addition, these compounds were tested for cytotoxicity against a human T-cell lymophoblast cell line (CEM) according to the method of Vazquez-Padua, et al., Cancer Comm., 2, 55-62 (1990) with the exception that the cell line was different, to assay the cells, the cells were counted with a cell counter and the cells were incubated for 4 days instead of for 3 days.
# HSV-1 (KOS strain) [1] = assay: Plaque reduction method, anti-HSV-1 (KOS strain); format: cell-based; settings: for activity at 1 µM: Human alphaherpesvirus 1, 1 uM; for activity at 1 µM / activity at 5 µM / activity at 25 µM / activity at 100 µM: read-out: Plaque Forming Units, % of Control; for activity at 5 µM: Human alphaherpesvirus 1, 5 uM; for activity at 25 µM: Human alphaherpesvirus 1, 25 uM; for activity at 100 µM: Human alphaherpesvirus 1, 100 uM; for antiherpes activity (in words): data of Table 1
# Protocol: Antiviral (HSV) activities of 1-(2'-Deoxy-B-D-ribofuranosyl)-2-pyrazinone-4-N-oxide (A in table 1) and the corresponding 1-(2'-Deoxy-B-D-ribofuranosyl)-5-methyl-2-pyrazinone-N-oxide and 1-(2,-Deoxy-B-D-ribofuranosyl)-5-ethyl-2-pyrazinone-4-N-oxide (respectively, B and C of table 1) were determined according to the procedure described in Gao, et al., Antimic. Agents Chem., 34, 808 (1990), using the plaque reduction method. Table 1 indicates the relative antiviral activities of the three derivatives against HSV-1 (KOS strain).
# leukemic L1210 cells = settings: literature; cited from earlier work
# HSV-1 KOS (PFAr) = assay: Plaque Reduction Method against HSV-1 KOS phosphonoformate resistant strain; format: cell-based; settings: Human alphaherpesvirus 1, read-out: ID50
# Protocol: as §1
# HSV-1 (KOS strain) [2] = assay: Virus Yield Method against HSV-1 (KOS strain); format: cell-based; settings: for IC90: Human alphaherpesvirus 1, read-out: ID90 (the source's name)
# thymidine phosphorylase = assay: Breakdown by human liver thymidine phosphorylase; format: biochemical; settings: enzyme from human liver
# Description: Compound C was also examined against thymidine phosphorylase obtained from the human liver using standard methodology.
# Varicella Zoster (VZV) = assay: Anti-VZV activity (Virus Yield) in HLF human cell line; format: cell-based
# Description: As tested, using the above-described methodology, luM of Compound C inhibited 90% of the Virus Yield.
# [3] = Cytotoxicity against human T-cell lymphoblast cell line (CEM); format: cell-based; settings: human; CEM cells, 4 days incubation; read-out: cytotoxicity ID50
# Protocol: as §2
# [4] = system: human T-cell lymophoblast cell line (CEM); assay: as above; format: cell-based; settings: CEM cells, 4 days incubation
# Protocol: as §2
# EBV = assay: Anti-EBV activity, EBV DNA in high EBV producer cell line; format: cell-based; settings: EBV DNA in Hl subclone of P3HR-1 cells, EBV DNA probe BAMH IM
# Protocol: In particular, when EBV DNA was assessed in a high EBV producer cell line (Hl, which is a subclone of P3HR-1 cells of Burkitt's lymphoma cell line), Compound C evidenced anti-EBV activity. The methodology employed in the EBV assay is similar to the method of Foster, et al., Jour. Biol. Chem., 266, 238, (1991), except that the EBV DNA was assessed with an EBV DNA probe BAMH IM.
# vaccinia viruses = settings: literature; comparable to 5-iodo-2'-deoxyuridine; cited from earlier work
# herpes simplex = settings: literature; comparable to 5-iodo-2'-deoxyuridine; cited from earlier work
SMILES,pIC50 (HSV-1 KOS (PMEAr)),antibacterial / antimicrobial activity (bacterial cells),IC90 (HSV-2 (333)),cytotoxicity (leukemia L1210 cells),activity at 1 µM (HSV-1 (KOS strain) [1]),activity at 5 µM (HSV-1 (KOS strain) [1]),activity at 25 µM (HSV-1 (KOS strain) [1]),activity at 100 µM (HSV-1 (KOS strain) [1]),antiherpes activity (in words) (HSV-1 (KOS strain) [1]),activity against leukemic L1210 cells (leukemic L1210 cells),pIC50 (HSV-1 KOS (PFAr)),IC90 (HSV-1 (KOS strain) [2]),further results
"Cc1cn([C@H]2C[C@H](O)[C@@H](CO)O2)c(=O)c[n+]1[O-] [Compound B, 1-(2'-Deoxy-B-D-ribofuranosyl)-5-methyl-2-pyrazinone-N-oxide]",6.22,only marginally active,3000 nM,significant cytoxtoxicity,100%,39%,0.91%,0.09%,significant antiherpes activity,significantly more active,5.85,1800 nM,
"O=c1c[n+]([O-])ccn1[C@H]1C[C@H](O)[C@@H](CO)O1 [A, 1-(2'-Deoxy-B-D-ribofuranosyl)-2-pyrazinone-4-N-oxide]",,significantly more effective as an antimicrobial agent than the riboside,,,100%,100%,100%,100%,inactive,essentially inactive,,,
"CCc1cn([C@H]2C[C@H](O)[C@@H](CO)O2)c(=O)c[n+]1[O-] [Compound C, 1-(2-Deoxy-B-D-ribofuranosyl)-5-ethyl-2-pyrazinone-4-N-oxide]",6.00,,2000 nM,virtually no cytotoxicity,100%,55%,4.5%,0.3%,significant antiherpes activity,,5.47,2800 nM,"substrate of thymidine phosphorylase (thymidine phosphorylase): substrate of the enzyme; rate of breakdown by the enzyme relative to thymidine (thymidine phosphorylase; compared with thymidine): much less than the rate or breakdown of thymidine; activity against VZV (in words) (Varicella Zoster (VZV)): significant activity; inhibition of Virus Yield (Varicella Zoster (VZV); luM): 90%; pEC50 (HSV-1 (KOS strain) [1]; Human alphaherpesvirus 1, plaque reduction): 5.22; CC50 at 96 h [3]: > 400 µM; cytotoxicity relative to Compound B [4]: significantly less toxic than Compound B; anti-EBV activity (EBV): significant anti-EBV activity"
"Nc1nc2c(ncn2COCCO)c(=O)[nH]1 [acyclovir, reference compound]",,,,,,,,,,,5.21,14000 nM,ID90 of ACV relative to Compound C (fold higher) (HSV-1 (KOS strain) [2]): approximately 7 fold
"O=c1c[n+]([O-])ccn1[C@@H]1O[C@H](CO)[C@@H](O)[C@H]1O [riboside of 2-pyrazinone-4-N-oxide, reference compound]",,antibacterial activity,,,,,,,,,,,
CCc1cn([C@H]2C[C@H](O)[C@@H](CO)O2)c(=O)[nH]c1=O [5-ethyl-2'-deoxyuridine],,,,,,,,,,,,,activity against vaccinia viruses (vaccinia viruses): significant activity; activity against herpes simplex (herpes simplex): significant activity
